Source: patent US20130252935A1, “Monobactams” (PFIZER INC., priority 2010, published 2013)
≈ marks a conversion by molar mass, not a printed value.

Tests used:
Type in all cases: cell-based
[1] = tested on: Pseudomonas aeruginosa UC-12120; assay: minimum inhibitory concentration (MIC) testing according to CLSI guidelines, Pseudomonas aeruginosa; conditions: UC-12120, wild-type, labeled as 1091-05, overnight incubation, lower of duplicate values; for MIC: Pseudomonas aeruginosa, UC12120, read-out: AB-MBT: Pseudomonas aeruginosa 1091-05: MIC (MstRcn)
Outline: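 Broth dilution MIC per CLSI guidelines against wild-type P. aeruginosa UC-12120 (1091-05), using 2-fold drug dilutions and overnight incubation with visual reading of lowest growth-inhibiting concentration. Tested in duplicate; lower value reported when within 2-fold, with control organisms and reference compounds for quality control.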

[2] = tested on: Klebsiella pneumoniae 1000-02; assay: minimum inhibitory concentration (MIC) testing according to CLSI guidelines, Klebsiella pneumoniae; conditions: ciprofloxacin-resistant, ESBL-expressing clinical isolate 1000-02, overnight incubation, lower of duplicate values; for MIC: Klebsiella pneumoniae, read-out: AB-MBT: Klebsiella pneumoniae 1000-02: MIC (MstRcnt)
Outline: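 MIC by CLSI broth dilution with 2-fold concentration steps and overnight incubation; lowest concentration visibly inhibiting growth versus drug-free control. Ciprofloxacin-resistant, ESBL-expressing clinical isolate 1000-02. Run in duplicate, lower value reported when within 2-fold, with QC organisms and reference compounds per run.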

[3] = tested on: Acinetobacter baumannii/haemolyticus AB-3167; assay: minimum inhibitory concentration (MIC) testing according to CLSI guidelines, Acinetobacter; conditions: multidrug-resistant clinical isolate AB-3167, overnight incubation, lower of duplicate values; for MIC: Acinetobacter baumannii, read-out: AB-MBT: Acinetobacter baumanii AB-3167: MIC (MstRcnt)
Outline: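 Broth dilution MIC per CLSI M7-A8/M100-S20 against multidrug-resistant clinical isolate AB-3167, using 2-fold drug dilutions and overnight incubation; MIC is the lowest concentration without visible growth. Duplicates within 2-fold reported as the lower value, with control strains and reference compounds in range.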

Structure (SMILES)	MIC [1] [µg/mL]	MIC [2] [µg/mL]	MIC [3] [µg/mL]	AB-MBT: Pseudomonas aeruginosa 1091-05: MIC (MstRcn) [1] [µg/mL]	AB-MBT: Klebsiella pneumoniae 1000-02: MIC (MstRcnt) [2] [µg/mL]	AB-MBT: Acinetobacter baumanii AB-3167: MIC (MstRcnt) [3] [µg/mL]
C[C@H](O/N=C(\C(=O)N[C@@H]1C(=O)N(S(=O)(=O)O)[C@@H]1CNC(=O)NCc1cc(=O)c(O)cn1O)c1nc(N)sc1Cl)C(=O)O [Example 34, (2S)-2-({[(1Z)-1-(2-amino-5-chloro-1,3-thiazol-4-yl)-2-({(2R,3S)-2-[({[(1,5-dihydroxy-4-oxo-1,4-dihydropyridin-2-yl)methyl]carbamoyl}amino)methyl]-4-oxo-1-sulfoazetidin-3-yl}amino)-2-oxoethylidene]amino}oxy)propanoic acid]	0.125 (≈ 0.191 µM)	0.5 (≈ 0.766 µM)	0.25 (≈ 0.383 µM)			
Cn1cc(O)c(=O)cc1C(=O)NC[C@@H]1[C@H](NC(=O)/C(=N\OC(C)(C)C(=O)O)c2csc(N)n2)C(=O)N1S(=O)(=O)O [Example 35, 2-({[(1Z)-1-(2-amino-1,3-thiazol-4-yl)-2-{[(2R,3S)-2-({[(5-hydroxy-1-methyl-4-oxo-1,4-dihydropyridin-2-yl)carbonyl]amino}methyl)-4-oxo-1-sulfoazetidin-3-yl]amino}-2-oxoethylidene]amino}oxy)-2-methylpropanoic acid]	4 (≈ 6.65 µM)	0.25 (≈ 0.416 µM)	0.5 (≈ 0.831 µM)			
CC(C)(O/N=C(\C(=O)N[C@@H]1C(=O)N(S(=O)(=O)O)[C@@H]1CNC(=O)CNC(=O)c1cc(=O)c(O)cn1O)c1csc(N)n1)C(=O)O [Example 36, 2-({[(1Z)-1-(2-amino-1,3-thiazol-4-yl)-2-({(2R,3S)-2-[({N-[(1,5-dihydroxy-4-oxo-1,4-dihydropyridin-2-yl)carbonyl]glycyl}amino)methyl]-4-oxo-1-sulfoazetidin-3-yl}amino)-2-oxoethylidene]amino}oxy)-2-methylpropanoic acid]	0.125 (≈ 0.189 µM)	1 (≈ 1.51 µM)	0.25 (≈ 0.378 µM)			
CC(C)(O/N=C(\C(=O)N[C@@H]1C(=O)N(S(=O)(=O)O)[C@@H]1CNS(=O)(=O)NCc1cc(=O)c(O)cn1O)c1csc(N)n1)C(=O)O [Example 37, 2-({[(1Z)-1-(2-amino-1,3-thiazol-4-yl)-2-{[(2R,3S)-2-{[({[(1,5-dihydroxy-4-oxo-1,4-dihydropyridin-2-yl)methyl]amino}sulfonyl)amino]methyl}-4-oxo-1-sulfoazetidin-3-yl]amino}-2-oxoethylidene]amino}oxy)-2-methylpropanoic acid]	1 (≈ 1.5 µM)	4 (≈ 5.98 µM)	2 (≈ 2.99 µM)			
CC(C)(O/N=C(\C(=O)N[C@@H]1C(=O)N(S(=O)(=O)O)[C@@H]1CNC(=O)OCc1cc(-c2cc(=O)c(O)cn2O)no1)c1csc(N)n1)C(=O)O [Example 38, 2-(5-{[({[(2R,3S)-3-{[(2Z)-2-(2-amino-1,3-thiazol-4-yl)-2-{[(2-carboxypropan-2-yl)oxy]imino}acetyl]amino}-4-oxo-1-sulfoazetidin-2-yl]methyl}carbamoyl)oxy]methyl}isoxazol-3-yl)-1,5-dihydroxy-4-oxo-1,4-dihydropyridinium]				2.0	0.5	0.5
CC(C)(O/N=C(\C(=O)N[C@@H]1C(=O)N(S(=O)(=O)O)[C@@H]1CNC(=O)c1ccc(S(=O)(=O)NCc2cc(=O)c(O)cn2O)cc1)c1csc(N)n1)C(=O)O [Example 39]				0.250	1.00	0.500
CC(C)(O/N=C(\C(=O)N[C@@H]1C(=O)N(S(=O)(=O)O)[C@@H]1CNC(=O)c1cccc(S(=O)(=O)NCc2cc(=O)c(O)cn2O)c1)c1csc(N)n1)C(=O)O [Example 40, 2-({[(1Z)-1-(2-amino-1,3-thiazol-4-yl)-2-{[(2R,3S)-2-({[3-({[(1,5-dihydroxy-4-oxo-1,4-dihydropyridin-2-yl)methyl]amino}sulfonyl)benzoyl]amino}methyl)-4-oxo-1-sulfoazetidin-3-yl]amino}-2-oxoethylidene]amino}oxy)-2-methylpropanoic acid]	0.25 (≈ 0.324 µM)	0.5 (≈ 0.647 µM)	0.25 (≈ 0.324 µM)			
CC(C)(O/N=C(\C(=O)N[C@@H]1C(=O)N(S(=O)(=O)O)[C@@H]1CNC(=O)C(=O)NCC1=CC(=O)C(O)=CC1O)c1csc(N)n1)C(=O)O (stereo partly drawn) [Example 41, 2-({[(1Z)-1-(2-amino-1,3-thiazol-4-yl)-2-{[(2R,3S)-2-({[{[(4,6-dihydroxy-3-oxocyclohexa-1,4-dien-1-yl)methyl]amino}(oxo)acetyl]amino}methyl)-4-oxo-1-sulfoazetidin-3-yl]amino}-2-oxoethylidene]amino}oxy)-2-methylpropanoic acid]	0.06 (≈ 0.091 µM)	0.5 (≈ 0.758 µM)	0.25 (≈ 0.379 µM)			
CC(C)(O/N=C(\C(=O)N[C@@H]1C(=O)N(S(=O)(=O)O)[C@@H]1CNC(=O)c1ccc(C(=O)NCc2cc(=O)c(O)cn2O)cc1)c1csc(N)n1)C(=O)O [Example 43, 2-({[(1Z)-1-(2-amino-1,3-thiazol-4-yl)-2-{[(2R,3S)-2-{[(4-{[(1,5-dihydroxy-4-oxo-1,4-dihydropyridin-2-yl)methyl]carbamoyl}benzoyl)amino]methyl}-4-oxo-1-sulfoazetidin-3-yl]amino}-2-oxoethylidene]amino}oxy)-2-methylpropanoic acid]	0.125 (≈ 0.17 µM)	0.5 (≈ 0.679 µM)	0.25 (≈ 0.339 µM)			
CC(C)(O/N=C(\C(=O)N[C@@H]1C(=O)N(S(=O)(=O)O)[C@@H]1CNC(=O)Cc1ccc(NC(=O)c2cc(=O)c(O)cn2O)cc1)c1csc(N)n1)C(=O)O [Example 45, 2-({[(1Z)-1-(2-amino-1,3-thiazol-4-yl)-2-{[(2R,3S)-2-({[(4-{[(1,5-dihydroxy-4-oxo-1,4-dihydropyridin-2-yl)carbonyl]amino}phenyl)acetyl]amino}methyl)-4-oxo-1-sulfoazetidin-3-yl]amino}-2-oxoethylidene]amino}oxy)-2-methylpropanoic acid]	0.5 (≈ 0.679 µM)	4 (≈ 5.43 µM)	0.5 (≈ 0.679 µM)			
CC(C)(O/N=C(\C(=O)N[C@@H]1C(=O)N(S(=O)(=O)O)[C@@H]1CNc1ccc(C(=O)NCc2cc(=O)c(O)cn2O)cn1)c1csc(N)n1)C(=O)O [Example 46, 2-({[(1Z)-1-(2-amino-1,3-thiazol-4-yl)-2-{[(2R,3S)-2-{[(5-{[(1,5-dihydroxy-4-oxo-1,4-dihydropyridin-2-yl)methyl]carbamoyl}pyridin-2-yl)amino]methyl}-4-oxo-1-sulfoazetidin-3-yl]amino}-2-oxoethylidene]amino}oxy)-2-methylpropanoic acid]	0.25 (≈ 0.352 µM)	2 (≈ 2.82 µM)	0.5 (≈ 0.705 µM)			

Further lines, with some results ahead:

MIC [1] [µg/mL]	MIC [2] [µg/mL]	Structure (SMILES)	MIC [3] [µg/mL]	AB-MBT: Pseudomonas aeruginosa 1091-05: MIC (MstRcn) [1] [µg/mL]	AB-MBT: Klebsiella pneumoniae 1000-02: MIC (MstRcnt) [2] [µg/mL]	AB-MBT: Acinetobacter baumanii AB-3167: MIC (MstRcnt) [3] [µg/mL]
0.125 (≈ 0.182 µM)	0.5 (≈ 0.726 µM)	CC(C)(O/N=C(\C(=O)N[C@@H]1C(=O)N(S(=O)(=O)O)[C@@H]1CNC(=O)CCC(=O)NCc1cc(=O)c(O)cn1O)c1csc(N)n1)C(=O)O [Example 42, 2-({[(1Z)-1-(2-amino-1,3-thiazol-4-yl)-2-{[(2R,3S)-2-{[(4-{[(1,5-dihydroxy-4-oxo-1,4-dihydropyridin-2-yl)methyl]amino}-4-oxobutanoyl)amino]methyl}-4-oxo-1-sulfoazetidin-3-yl]amino}-2-oxoethylidene]amino}oxy)-2-methylpropanoic acid]	0.125 (≈ 0.182 µM)			
0.25 (≈ 0.339 µM)	0.25 (≈ 0.339 µM)	CC(C)(O/N=C(\C(=O)N[C@@H]1C(=O)N(S(=O)(=O)O)[C@@H]1CNC(=O)c1cccc(C(=O)NCc2cc(=O)c(O)cn2O)c1)c1csc(N)n1)C(=O)O [Example 44, 2-({[(1Z)-1-(2-amino-1,3-thiazol-4-yl)-2-{[(2R,3S)-2-{[(3-{[(1,5-dihydroxy-4-oxo-1,4-dihydropyridin-2-yl)methyl]carbamoyl}benzoyl)amino]methyl}-4-oxo-1-sulfoazetidin-3-yl]amino}-2-oxoethylidene]amino}oxy)-2-methylpropanoic acid]	0.25 (≈ 0.339 µM)			
0.125 (≈ 0.179 µM)	0.25 (≈ 0.357 µM)	CC(C)(O/N=C(\C(=O)N[C@@H]1C(=O)N(S(=O)(=O)O)[C@@H]1CNC(=O)NCc1cc(-c2cc(=O)c(O)cn2O)no1)c1csc(N)n1)C(=O)O [Example 47, 2-({[(1Z)-1-(2-amino-1,3-thiazol-4-yl)-2-{[(2R,3S)-2-{[({[3-(1,5-dihydroxy-4-oxo-1,4-dihydropyridin-2-yl)isoxazol-5-yl]methyl}carbamoyl)amino]methyl}-4-oxo-1-sulfoazetidin-3-yl]amino}-2-oxoethylidene]amino}oxy)-2-methylpropanoic acid]	0.25 (≈ 0.357 µM)			
1 (≈ 1.29 µM)	1 (≈ 1.29 µM)	CC(C)(O/N=C(\C(=O)N[C@@H]1C(=O)N(S(=O)(=O)O)[C@@H]1CNS(=O)(=O)c1ccc(C(=O)NCc2cc(=O)c(O)cn2O)cc1)c1csc(N)n1)C(=O)O [Example 48, 2-({[(1Z)-1-(2-amino-1,3-thiazol-4-yl)-2-{[(2R,3S)-2-({[(4-{[(1,5-dihydroxy-4-oxo-1,4-dihydropyridin-2-yl)methyl]carbamoyl}phenyl)sulfonyl]amino}methyl)-4-oxo-1-sulfoazetidin-3-yl]amino}-2-oxoethylidene]amino}oxy)-2-methylpropanoic acid]	2 (≈ 2.59 µM)			
